For test [1], the target named is T1, human GPR119 (Homo sapiens, UniProt Q8TDV5).
T1 construct: host or cells: U2OS
The test is described as follows: Beta-arrestin functional assay (DiscoverX PathHunter U2OS hGPR119 β-arrestin cells). It is filed as cell-based. Also on record: Emax: dose or concentration left out as unconfirmed. The conditions noted are these: one line per run; for EC50: U2OS hGPR119 β-arrestin cells, 90 minute incubation, read-out: Human B-arrestin Functional EC50; for Emax: U2OS, percent of maximal activity relative to standard GPR119 agonist (WO2005121121) at 10 microM, read-out: Intrinsic Activity* (%) (B-arrestin). On the procedure:
GPR119 agonist activity was also determined with a cell-based assay utilizing DiscoverX PathHunter β-arrestin cell assay technology and their U2OS hGPR119 β-arrestin cell line (DiscoverX Cat #93-0356C3). In this assay, agonist activation is determined by measuring agonist-induced interaction of β-arrestin with activated GPR119. A small, 42 amino acid enzyme fragment, called ProLink was appended to the C-terminus of GPR119. Arrestin was fused to the larger enzyme fragment, termed EA (Enzyme Acceptor). Activation of GPR119 stimulates binding of arrestin and forces the complementation of the two enzyme fragments, resulting in formation of a functional β-galactosidase enzyme capable of hydrolyzing substrate and generating a chemiluminescent signal.
Specifically, U2OS hGPR119 β-arrestin cells (DiscoverX 1×10^7/ml) are removed from cryopreservation and diluted in growth medium (Minimum essential medium (MEM; Gibco Cat #11095-080), 10% heat inactivated fetal bovine serum (HIFBS; Sigma Cat #F4135-100), 100 mM sodium pyruvate (Sigma Cat #S8636), 500 microg/mL G418 (Sigma Cat #G8168) and 250 microg/mL Hygromycin B (Invitrogen Cat #10687-010). The cell concentration was adjusted to 1.66×10^5 cells/ml and 30 mls of this suspension was added to a T-175 flask and incubated at 37 degrees Celsius in a humidified environment in 5% carbon dioxide. After 48 hours, the cells were removed from the T-175 flask with enzyme-free cell dissociation buffer (Gibco cat #13151-014), centrifuged at 800×g and then re-suspended in plating medium (Opti-MEM I (Invitrogen/BRL Cat #31985-070) and 2% charcoal dextran treated fetal bovine serum (CD serum; HyClone Cat #SH30068.03). The cell concentration was adjusted to 2.5×10^5 cells/ml with plating medium and 10 microL of this cell suspension (2500 cells) was added to each well of a white Greiner 384-well low volume assay plate (VWR cat #82051-458) and the plates were incubated at 37 degrees Celsius in a humidified environment in 5% carbon dioxide.
After 16 hours (overnight) the assay plates were removed from the incubator and varying concentrations of each compound to be tested (diluted in assay buffer (1×HBSS+CaCl2+MgCl2 (Gibco Cat #14025-092), 20 mM HEPES pH 7.0 (Gibco Cat #15630-080) and 0.1% BSA (Sigma Cat #A9576)) were added to the assay plate wells in a volume of 2.5 microL (final DMSO concentration was 0.5%). After a 90 minute incubation at 37 degrees Celsius in a humidified environment in 5% carbon dioxide, 7.5 microL of Galacton Star β-galactosidase substrate (PathHunter Detection Kit (DiscoveRx Cat #93-0001); prepared as described in the manufacturers assay protocol) was added to each well of the assay plate. The plates were incubated at room temperature and after 60 minutes, changes in the luminescence were read with an Envision 2104 multilabel plate reader at 0.1 seconds per well. EC50 determinations were made from an agonist-response curves analyzed with a curve fitting program using a 4-parameter logistic dose response equation.
T1 sequence (P32121 whole entry partner, one chain of several): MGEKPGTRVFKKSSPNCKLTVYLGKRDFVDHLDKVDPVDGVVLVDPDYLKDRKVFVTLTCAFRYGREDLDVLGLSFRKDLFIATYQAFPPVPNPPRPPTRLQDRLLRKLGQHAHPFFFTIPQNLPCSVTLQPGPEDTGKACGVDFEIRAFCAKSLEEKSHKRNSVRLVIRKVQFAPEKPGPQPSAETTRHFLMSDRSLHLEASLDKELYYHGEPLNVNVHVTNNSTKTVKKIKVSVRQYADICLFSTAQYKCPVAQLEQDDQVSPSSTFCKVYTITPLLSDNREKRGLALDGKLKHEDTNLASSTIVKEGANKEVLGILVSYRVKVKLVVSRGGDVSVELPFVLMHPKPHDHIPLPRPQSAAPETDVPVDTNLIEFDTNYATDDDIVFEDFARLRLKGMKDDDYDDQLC

For test [2], the target named is T2, human GPR119 (Homo sapiens, UniProt Q8TDV5).
T2 construct: host or cells: HEK293-CRE beta-lactamase cells
T2 sequence (Q8TDV5 1-335): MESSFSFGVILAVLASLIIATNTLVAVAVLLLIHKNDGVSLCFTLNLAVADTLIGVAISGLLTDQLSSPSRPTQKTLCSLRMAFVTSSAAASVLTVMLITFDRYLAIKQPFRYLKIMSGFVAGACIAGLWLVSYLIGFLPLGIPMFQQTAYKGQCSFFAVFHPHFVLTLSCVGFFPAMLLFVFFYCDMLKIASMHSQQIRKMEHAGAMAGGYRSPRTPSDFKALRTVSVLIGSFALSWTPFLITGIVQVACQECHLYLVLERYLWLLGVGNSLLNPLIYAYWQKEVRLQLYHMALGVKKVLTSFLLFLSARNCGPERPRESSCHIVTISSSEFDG
The test is described as follows: cAMP functional assay (HTRF, hGPR119 HEK-CRE beta-lactamase cells). Format: cell-based. As to the method:
GPR119 agonist activity was also determined with a cell-based assay utilizing an HTRF (Homogeneous Time-Resolved Fluorescence) cAMP detection kit (cAMP dynamic 2 Assay Kit; Cis Bio cat #62AM4PEC) that measures cAMP levels in the cell. The method is a competitive immunoassay between native cAMP produced by the cells and the cAMP labeled with the dye d2. The tracer binding is visualized by a Mab anti-cAMP labeled with Cryptate. The specific signal (i.e. energy transfer) is inversely proportional to the concentration of cAMP in either standard or sample.
Specifically, hGPR119HEK-CRE beta-lactamase cells (Invitrogen 2.5×10^7/ml; the same cell line used in the beta-lactamase assay described above) are removed from cryopreservation and diluted in growth medium (Dulbecco's modified Eagle medium high glucose (DMEM; Gibco Cat #11995-065), 1% charcoal dextran treated fetal bovine serum (CD serum; HyClone Cat #SH30068.03), 1×MEM Nonessential amino acids (Gibco Cat #15630-080) and 25 mM HEPES pH 7.0 (Gibco Cat #15630-080)). The cell concentration was adjusted to 1.5×10^5 cells/ml and 30 mls of this suspension was added to a T-175 flask and incubated at 37 degrees Celsius in a humidified environment in 5% carbon dioxide. After 16 hours (overnight), the cells were removed from the T-175 flask (by rapping the side of the flask), centrifuged at 800×g and then re-suspended in assay medium (1×HBSS+CaCl2+MgCl2 (Gibco Cat #14025-092) and 25 mM HEPES pH 7.0 (Gibco Cat #15630-080)). The cell concentration was adjusted to 6.25×10^5 cells/ml with assay medium and 8 μl of this cell suspension (5000 cells) was added to each well of a white Greiner 384-well, low-volume assay plate (VWR cat #82051-458).
Varying concentrations of each compound to be tested were diluted in assay buffer containing 3-isobutyl-1-methylxanthin (IBMX; Sigma cat #15879) and added to the assay plate wells in a volume of 2 microL (final IBMX concentration was 400 microM and final DMSO concentration was 0.58%). Following 30 minutes incubation at room temperature, 5 microL of labeled d2 cAMP and 5 microL of anti-cAMP antibody (both diluted 1:20 in cell lysis buffer; as described in the manufacturers assay protocol) were added to each well of the assay plate. The plates were then incubated at room temperature and after 60 minutes, changes in the HTRF signal were read with an Envision 2104 multilabel plate reader using excitation of 330 nm and emissions of 615 and 665 nm. Raw data were converted to nM cAMP by interpolation from a cAMP standard curve (as described in the manufacturer's assay protocol) and EC50 determinations were made from an agonist-response curves analyzed with a curve fitting program using a 4-paramter logistic dose response equation.

Where [3] appears, read: hGPR119 HEK-CRE beta-lactamase cells, HTRF cAMP, 30 minutes, one line per run, read-out: Human cAMP Functional EC50.
Where [4] appears, read: percent of maximal activity relative to standard GPR119 agonist (WO2005121121) at 10 μM, one line per run, read-out: Intrinsic Activity* (%) (cAMP).

Values joined by “and” are separate entries in the source; they are usually repeats but may differ in a detail not shown here. Equal entries are not always repeated.

In general, EC50 refers to the concentration at which the effect is half-maximal.

In the case of `Cc1c(O[C@H]2[C@@H]3COC[C@H]2CN(C(=O)OC(C)(C)C)C3)ncnc1N1Cc2cnn(C)c2C1` [Example 9, tert-Butyl (9-anti)-9-{[5-methyl-6-(1-methyl-4,6-dihydropyrrolo[3,4-c]pyrazol-5(1H)-yl)pyrimidin-4-yl]oxy}-3-oxa-7-azabicyclo[3.3.1]nonane-7-carboxylate], the concentration for a half-maximal effect (EC50) on human GPR119 [1] is 56 nM; on human GPR119 [2] (setting [3]) it was 64 nM and 57 nM and 77 nM. Further, the values for the Emax on human GPR119 [1] and at human GPR119 [2] (setting [4]) were 70% and 72%, respectively.

Regarding `Cc1c(O[C@H]2CCN(C(=O)OC3(C)CC3)C[C@H]2F)ncnc1N1Cc2cnn(C)c2C1` (racemic) [Example 7, 1-Methylcyclopropyyl (3,4-cis)-3-fluoro-4-{[5-methyl-6-(1-methyl-4,6-dihydropyrrolo[3,4-c]pyrazol-5(1H)-yl)pyrimidin-4-yl]oxy}piperidine-1-carboxylate (racemic)], the EC50 is 23 nM at human GPR119 [1]; 17 nM and 14 nM and 12 nM on human GPR119 [2] (setting [3]). In addition, the Emax on human GPR119 [1] came out at 77%; on human GPR119 [2] (setting [4]), 80%.

For `Cc1c(O[C@H]2CCN(C(=O)OC(C)(C)C)C[C@@H]2F)ncnc1N1Cc2cnn(C)c2C1` (racemic) [Example 8, tert-Butyl (3,4-trans)-3-fluoro-4-{[5-methyl-6-(1-methyl-4,6-dihydropyrrolo[3,4-c]pyrazol-5(1H)-yl)pyrimidin-4-yl]oxy}piperidine-1-carboxylate (racemic)], the concentration for a half-maximal effect (EC50) on human GPR119 [1] was 81 nM and 754 nM; at human GPR119 [2] (setting [3]) it was 182 nM and 78 nM and 85 nM.

For `Cc1c(OC2CCN(C(=O)OC(C)C)CC2)ncnc1N1Cc2cnn(C)c2C1` [Example 2, Isopropyyl 4-{[5-methyl-6-(1-methyl-4,6-dihydropyrrolo[3,4-c]pyrazol-5(1H)-yl)pyrimidin-4-yl]oxy}piperidine-1-carboxylate], the EC50 on human GPR119 [2] (setting [3]) is 296 nM and 170 nM and 135 nM and 434 nM. The Emax at human GPR119 [2] (setting [4]) amounted to 45%.

On to `Cc1c(O[C@H]2CCN(C(=O)OC(C)(C)C)C[C@H]2F)ncnc1N1Cc2cnn(C)c2C1` (racemic) [Example 6, tert-Butyl (3,4-cis)-3-fluoro-4-{[5-methyl-6-(1-methyl-4,6-dihydropyrrolo[3,4-c]pyrazol-5(1H)-yl)pyrimidin-4-yl]oxy}piperidine-1-carboxylate (racemic)], for which the 50% effective concentration (EC50) on human GPR119 [1] was 19 nM; at human GPR119 [2] (setting [3]) it was 39 nM and 35 nM and 133 nM and 289 nM. The Emax on human GPR119 [1] is 67%; at human GPR119 [2] (setting [4]) it was 60%.

For the compound `CC(C)OC(=O)N1CCC(Oc2ncnc(N3Cc4cnn(C)c4C3)c2C#N)CC1` [Example 3, Isopropyyl 4-{[5-cyano-6-(1-methyl-4,6-dihydropyrrolo[3,4-c]pyrazol-5(1H)-yl)pyrimidin-4-yl]oxy}piperidine-1-carboxylate], the 50% effective concentration (EC50) at human GPR119 [2] (**the curve was extrapolated to 100% to calculate an EC50, read-out: Human cAMP Functional EC50 (nM), curve extrapolated to 100%) was 6250 nM. Also, the Emax was 100% at human GPR119 [2] (**the curve was extrapolated to 100% to calculate an EC50, read-out: Intrinsic Activity* (%) (cAMP), curve extrapolated to 100%) and 51% at human GPR119 [2] (setting [4]).

(Values after patent US20130072427A1, “GPR 119 MODULATORS” (Pfizer Inc., priority 2009, published 2013).)
